Source: ChEMBL document CHEMBL4138123, “Design, synthesis and biological evaluation of novel pyrazolochalcones as potential modulators of PI3K/Akt/mTOR pathway and inducers of apoptosis in breast cancer cells” (Eur J Med Chem, 2017)

Columns and labels:
Format in all cases: functional
OVCAR-4 [1] = experiment: Cytotoxicity against human OVCAR4 cells assessed as cell growth at 0.1 uM after 48 hrs by sulforhodamine B assay relative to control; details: OVCAR-4, 48 h, read-out: Activity
BT-549 [2] = experiment: Cytotoxicity against human BT549 cells assessed as cell growth at 1 uM after 48 hrs by sulforhodamine B assay relative to control; details: BT-549, 48 h, read-out: Activity
A549 [3] = experiment: Cytotoxicity against human A549/ATCC cells assessed as cell growth at 100 uM after 48 hrs by sulforhodamine B assay relative to control; details: A549, 48 h, read-out: Activity
NCI-H226 [4] = experiment: Cytotoxicity against human NCI-H226 cells assessed as cell growth at 1 uM after 48 hrs by sulforhodamine B assay relative to control; details: NCI-H226, 48 h, read-out: Activity
RXF 393 = experiment: Cytotoxicity against human RXF393 cells assessed as cell growth at 0.01 uM after 48 hrs by sulforhodamine B assay relative to control; details: RXF 393, 48 h, read-out: Activity
MCF7 [5] = experiment: Cytotoxicity against human MCF7 cells assessed as cell growth at 10 uM after 48 hrs by sulforhodamine B assay relative to control; details: MCF7, 48 h, read-out: Activity
NCI/ADR-RES = experiment: Cytotoxicity against human NCI/ADR-RES cells assessed as cell growth at 0.1 uM after 48 hrs by sulforhodamine B assay relative to control; details: read-out: Activity
MDA-MB-468 [6] = experiment: Cytotoxicity against human MDA-MB-468 cells assessed as cell growth at 0.1 uM after 48 hrs by sulforhodamine B assay relative to control; details: MDA-MB-468, 48 h, read-out: Activity
MOLT-4 = experiment: Cytotoxicity against human MOLT4 cells assessed as cell growth at 0.1 uM after 48 hrs by sulforhodamine B assay relative to control; details: MOLT-4, 48 h, read-out: Activity
SNB-19 = experiment: Cytotoxicity against human SNB19 cells assessed as cell growth at 0.01 uM after 48 hrs by sulforhodamine B assay relative to control; details: SNB-19, 48 h, read-out: Activity
HT-29 = experiment: Cytotoxicity against human HT-29 cells assessed as growth inhibition after 48 hrs by sulforhodamine B assay; details: HT-29, 48 h
A549 [7] = experiment: Cytotoxicity against human A549/ATCC cells assessed as cell growth at 10 uM after 48 hrs by sulforhodamine B assay relative to control; details: A549, 48 h, read-out: Activity
SK-MEL-2 = experiment: Cytotoxicity against human SK-MEL-2 cells assessed as growth inhibition after 48 hrs by sulforhodamine B assay; details: SK-MEL-2, 48 h
OVCAR-4 [8] = experiment: Cytotoxicity against human OVCAR4 cells assessed as cell growth at 10 uM after 48 hrs by sulforhodamine B assay relative to control; details: OVCAR-4, 48 h, read-out: Activity
NCI-H522 [9] = experiment: Cytotoxicity against human NCI-H522 cells assessed as growth inhibition after 48 hrs by sulforhodamine B assay; details: NCI-H522, 48 h
MCF7 [10] = experiment: Cytotoxicity against human MCF7 cells assessed as cell growth at 100 uM after 48 hrs by sulforhodamine B assay relative to control; details: MCF7, 48 h, read-out: Activity
HCC 2998 = experiment: Cytotoxicity against human HCC2998 cells assessed as cell growth at 100 uM after 48 hrs by sulforhodamine B assay relative to control; details: HCC 2998, 48 h, read-out: Activity
HOP-62 = experiment: Cytotoxicity against human HOP62 cells assessed as cell growth at 100 uM after 48 hrs by sulforhodamine B assay relative to control; details: HOP-62, 48 h, read-out: Activity
OVCAR-5 = experiment: Cytotoxicity against human OVCAR5 cells assessed as cell growth at 0.1 uM after 48 hrs by sulforhodamine B assay relative to control; details: OVCAR-5, 48 h, read-out: Activity
ACHN [11] = experiment: Cytotoxicity against human ACHN cells assessed as cell growth at 0.1 uM after 48 hrs by sulforhodamine B assay relative to control; details: read-out: Activity
SK-MEL-5 = experiment: Cytotoxicity against human SK-MEL-5 cells assessed as cell growth at 10 uM after 48 hrs by sulforhodamine B assay relative to control; details: SK-MEL-5, 48 h, read-out: Activity
NCI-H226 [12] = experiment: Cytotoxicity against human NCI-H226 cells assessed as cell growth at 0.1 uM after 48 hrs by sulforhodamine B assay relative to control; details: NCI-H226, 48 h, read-out: Activity
Hs-578T = experiment: Cytotoxicity against human Hs 578T cells assessed as cell growth at 100 uM after 48 hrs by sulforhodamine B assay relative to control; details: read-out: Activity
NCI-H522 [13] = experiment: Cytotoxicity against human NCI-H522 cells assessed as cell growth at 100 uM after 48 hrs by sulforhodamine B assay relative to control; details: NCI-H522, 48 h, read-out: Activity
ACHN [14] = experiment: Cytotoxicity against human ACHN cells assessed as cell growth at 1 uM after 48 hrs by sulforhodamine B assay relative to control; details: read-out: Activity
SR = experiment: Cytotoxicity against human SR cells assessed as cell growth at 0.01 uM after 48 hrs by sulforhodamine B assay relative to control; details: read-out: Activity
Malme-3M = experiment: Cytotoxicity against human MALME-3M cells assessed as cell growth at 10 uM after 48 hrs by sulforhodamine B assay relative to control; details: read-out: Activity
NCI-H460 = experiment: Cytotoxicity against human NCI-H460 cells assessed as cell growth at 0.01 uM after 48 hrs by sulforhodamine B assay relative to control; details: NCI-H460, 48 h, read-out: Activity
T47D [15] = experiment: Cytotoxicity against human T47D cells assessed as cell growth at 10 uM after 48 hrs by sulforhodamine B assay relative to control; details: read-out: Activity
ACHN [16] = experiment: Cytotoxicity against human ACHN cells assessed as cell growth at 100 uM after 48 hrs by sulforhodamine B assay relative to control; details: read-out: Activity
U-251 = experiment: Cytotoxicity against human U251 cells assessed as cell growth at 1 uM after 48 hrs by sulforhodamine B assay relative to control; details: U-251, 48 h, read-out: Activity
T47D [17] = experiment: Cytotoxicity against human T47D cells assessed as cell growth at 100 uM after 48 hrs by sulforhodamine B assay relative to control; details: read-out: Activity
A498 = experiment: Cytotoxicity against human A498 cells assessed as growth inhibition after 48 hrs by sulforhodamine B assay; details: A498, 48 h
MDA-MB-468 [18] = experiment: Cytotoxicity against human MDA-MB-468 cells assessed as growth inhibition after 48 hrs by sulforhodamine B assay; details: MDA-MB-468, 48 h
BT-549 [19] = experiment: Cytotoxicity against human BT549 cells assessed as growth inhibition after 48 hrs by sulforhodamine B assay; details: BT-549, 48 h
PC-3 = experiment: Cytotoxicity against human PC3 cells assessed as cell growth at 100 uM after 48 hrs by sulforhodamine B assay relative to control; details: PC-3, 48 h, read-out: Activity

COc1cc(-c2cc(/C=C/C(=O)c3ccc4c(c3)OCO4)[nH]n2)cc(OC)c1OC
growth at 0.1 µM (OVCAR-4 [1]): 92% | growth at 1 µM (BT-549 [2]): 92% | growth at 100 µM (A549 [3]): 8% | growth at 1 µM (NCI-H226 [4]): 89% | growth at 0.01 µM (RXF 393): 95% | growth at 10 µM (MCF7 [5]): -1% | growth at 0.1 µM (NCI/ADR-RES): 95% | growth at 0.1 µM (MDA-MB-468 [6]): 90% | growth at 0.1 µM (MOLT-4): 103% | growth at 0.01 µM (SNB-19): 94% | LC50 (HT-29): 9.48 µM | TGI (HT-29): 4.55 µM | growth at 10 µM (A549 [7]): 26% | LC50 (concentration killing 50% of cells) (SK-MEL-2): 81.3 µM | TGI (SK-MEL-2): 28.9 µM | growth at 10 µM (OVCAR-4 [8]): 27% | LC50 (NCI-H522 [9]): 5.37 µM | TGI (NCI-H522 [9]): 2.35 µM | growth at 100 µM (MCF7 [10]): 3% | growth at 100 µM (HCC 2998): -50% | growth at 100 µM (HOP-62): -70% | growth at 0.1 µM (OVCAR-5): 91% | growth at 0.1 µM (ACHN [11]): 109% | growth at 10 µM (SK-MEL-5): 26% | growth at 0.1 µM (NCI-H226 [12]): 98% | growth at 100 µM (Hs-578T): -2% | growth at 100 µM (NCI-H522 [13]): -97% | growth at 1 µM (ACHN [14]): 96% | growth at 0.01 µM (SR): 106% | growth at 10 µM (Malme-3M): 26% | growth at 0.01 µM (NCI-H460): 104% | growth at 10 µM (T47D [15]): 6% | growth at 100 µM (ACHN [16]): -69% | growth at 1 µM (U-251): 85% | growth at 100 µM (T47D [17]): -19% | LC50 (A498): > 100 µM | TGI (A498): 15.4 µM | GI50 (MDA-MB-468 [18]): 1.4 µM | LC50 (MDA-MB-468 [18]): 5.82 µM | TGI (MDA-MB-468 [18]): 2.86 µM | LC50 (concentration killing 50% of cells) (BT-549 [19]): > 100 µM | growth at 100 µM (PC-3): -38%
